Data from patent US10889592B2, “Thienopyrazine carboxamides as ubiquitin-specific protease inhibitors” (VALO EARLY DISCOVERY, INC., priority 2016, dated 2021).

What was measured:
[1] = target: USP28 (Homo sapiens (Human), UniProt Q96RU2); assay: Ubiquitin-Rhodamine 110 Assay for USP28 Activity; assay type: biochemical; conditions: Ub-Rh110 substrate 25 nM, fluorescence readout
Experimental: Each assay was performed in a final volume of 20 μL in assay buffer containing 20 mM Tris-HCl (pH 8.0, (1M Tris-HCl, pH 8.0 solution; Corning 46-031-CM)), 2 mM CaCl2) (1M Calcium Chloride solution; Sigma #21114) 2 mM BME (2-Mercaptoethanol; Sigma 63689-25ML-F), 0.01% Prionex (0.22 μM filtered, Sigma # G-0411), and 0.01% Triton X-100. Stock compound solutions were stored at −20° C. as 10 mM in DMSO. Up to 1 month prior to the assay, 2 mM test compounds were pre-dispensed into assay plates (Black, low volume; Corning #3820) and frozen at −20° C. Prestamped assay plates were allowed to come to room temperature on the day of the assay. For the screen, 100 nL of 2 mM was pre-dispensed for a final screening concentration of 10 μM (DMSO(fc)=0.5%). Enzyme (USP28, construct USP28 (USP28-5(1-1077)-TEV-6*His; LifeSensors) concentration and incubation times were optimized for the maximal signal-to-background while maintaining initial velocity conditions at a fixed substrate concentration. The final concentration of the enzyme in the assay was 400 pM. Final substrate (Ub-Rh110; Ubiquitin-Rhodamine 110, R&D Systems # U-555) concentration was 25 nM with [Ub-Rh110]<<Km. 10 μL of 2× enzyme was added to assay plates (pre-stamped with compound) either simultaneously with 2×Ub-Rh110 or preincubated with USP28 40 minutes prior to the addition of 10 μL of 2×Ub-Rh110 to compound plates. Plates were incubated stacked for 90 minutes at room temperature before fluorescence was read on the Envision (Excitation at 485 nm and Emission at 535 nm; Perkin Elmer) or on the PheraSTAR (Excitation at 485 nm and Emission at 535 nm; BMG Labtech).
For follow-up studies, Each assay was performed in a final volume of 15 μL in assay buffer containing 20 mM Tris-HCl (pH 8.0, (1M Tris-HCl, pH 8.0 solution; Corning 46-031-CM)), 3 mM BME (2-Mercaptoethanol; Sigma 63689-25ML-F), 0.03% BGG ([…] filtered, Sigma, G7516-25G), and 0.01% Triton X-100 (Sigma, T9284-10L). Nanoliter quantities of either an 8-point or 10-point, 3-fold serial dilution in DMSO was pre-dispensed into assay plates (Perkin Elmer, ProxiPlate-384 F Plus, #) for a final test concentration of either 25 μM to 11 nM or 25 μM to 1.3 nM, respectively. Enzyme USP28, construct USP28 (USP28-5(1-1077)-TEV-6*His; LifeSensors) concentration and incubation times were optimized for the maximal signal-to-background while maintaining initial velocity conditions at a fixed substrate concentration. The final concentration of the enzyme in the assay was 75 pM. Final substrate (Ub-Rh110; Ubiquitin-Rhodamine 110, R&D Systems # U-555) concentration was 25 nM with [Ub-Rh110]<<Km. 5 μL of 2× enzyme was added to assay plates (pre-stamped with compound) preincubated with USP28 for 30 minutes and then 5 μL of 2×Ub-Rh110 was added to assay plates. Plates were incubated stacked for 20 minutes at room temperature before 5 μL of stop solution was added (final concentration of 10 mM citric acid (Sigma, 251275-500G)). Fluorescence was read on the Envision (Excitation at 485 nm and Emission at 535 nm; Perkin Elmer) or on the PheraSTAR (Excitation at 485 nm and Emission at 535 nm; BMG Labtech).
(§1) For both the USP28 and USP25 assay formats Data were reported as percent inhibition compared with control wells based on the following equation: % inh=1−((FLU−AveLow)/(AveHigh−AveLow)) where FLU=measured Fluorescence, AveLow=average Fluorescence of no enzyme control (n=16), and AveHigh=average Fluorescence of DMSO control (n=16). IC50 values were determined by curve fitting of the standard 4 parameter logistic fitting algorithm included in the Activity Base software package: IDBS XE Designer Model205. Data is fitted using the Levenburg Marquardt algorithm.

[2] = target: USP25 (Homo sapiens (Human), UniProt Q9UHP3); assay: Ubiquitin-Rhodamine 110 Assay for USP25 Activity; assay type: biochemical; conditions: Ub-Rh110 substrate 25 nM, fluorescence readout
Experimental: The assay was performed in a final volume of 9 μL in assay buffer containing 20 mM Tris-HCl (pH 8.0, (1M Tris-HCl, pH 8.0 solution; Corning 46-031-CM)), 3 mM BME (2-Mercaptoethanol; Sigma 63689-25ML-F), 0.03% BGG ([…] filtered. Sigma, G7516-25G), and 0.01% Triton X-100 (Sigma, T9284-10L). Nanoliter quantities of 10-point, 3-fold serial dilution in DMSO was pre-dispensed into 1536 assay plates (Corning, #3724BC) for a final test concentration of 25 μM to 1.3 nM, top to lowest dose, respectively. Enzyme USP25, construct USP25-His6, (Boston Biochem E-546). Concentration and incubation times were optimized for the maximal signal-to-background while maintaining initial velocity conditions at a fixed substrate concentration. The final concentration of the enzyme in the assay was 75 pM. Final substrate (Ub-Rh110 Ubiquitin-Rhodamine 110, R&D Systems # U-555) concentration was 25 nM with [Ub-Rh110]<<Km. 3 μL of 2× enzyme was added to assay plates (pre-stamped with compound) preincubated with […] for 30 minutes and then 3 μL of 2×Ub-Rh110 was added to assay plates. Plates were incubated for 45 minutes at room temperature before addition of 3 μL of stop solution (final concentration of 10 mM citric acid (Sigma, 251275-500G)). Fluorescence was read on the Envision (Excitation at 485 nm and Emission at 535 nm; Perkin Elmer) or on the PheraSTAR (Excitation at 485 nm and Emission at 535 nm; BMG Labtech).
as §1

Chain of USP28 (Q96RU2 whole entry): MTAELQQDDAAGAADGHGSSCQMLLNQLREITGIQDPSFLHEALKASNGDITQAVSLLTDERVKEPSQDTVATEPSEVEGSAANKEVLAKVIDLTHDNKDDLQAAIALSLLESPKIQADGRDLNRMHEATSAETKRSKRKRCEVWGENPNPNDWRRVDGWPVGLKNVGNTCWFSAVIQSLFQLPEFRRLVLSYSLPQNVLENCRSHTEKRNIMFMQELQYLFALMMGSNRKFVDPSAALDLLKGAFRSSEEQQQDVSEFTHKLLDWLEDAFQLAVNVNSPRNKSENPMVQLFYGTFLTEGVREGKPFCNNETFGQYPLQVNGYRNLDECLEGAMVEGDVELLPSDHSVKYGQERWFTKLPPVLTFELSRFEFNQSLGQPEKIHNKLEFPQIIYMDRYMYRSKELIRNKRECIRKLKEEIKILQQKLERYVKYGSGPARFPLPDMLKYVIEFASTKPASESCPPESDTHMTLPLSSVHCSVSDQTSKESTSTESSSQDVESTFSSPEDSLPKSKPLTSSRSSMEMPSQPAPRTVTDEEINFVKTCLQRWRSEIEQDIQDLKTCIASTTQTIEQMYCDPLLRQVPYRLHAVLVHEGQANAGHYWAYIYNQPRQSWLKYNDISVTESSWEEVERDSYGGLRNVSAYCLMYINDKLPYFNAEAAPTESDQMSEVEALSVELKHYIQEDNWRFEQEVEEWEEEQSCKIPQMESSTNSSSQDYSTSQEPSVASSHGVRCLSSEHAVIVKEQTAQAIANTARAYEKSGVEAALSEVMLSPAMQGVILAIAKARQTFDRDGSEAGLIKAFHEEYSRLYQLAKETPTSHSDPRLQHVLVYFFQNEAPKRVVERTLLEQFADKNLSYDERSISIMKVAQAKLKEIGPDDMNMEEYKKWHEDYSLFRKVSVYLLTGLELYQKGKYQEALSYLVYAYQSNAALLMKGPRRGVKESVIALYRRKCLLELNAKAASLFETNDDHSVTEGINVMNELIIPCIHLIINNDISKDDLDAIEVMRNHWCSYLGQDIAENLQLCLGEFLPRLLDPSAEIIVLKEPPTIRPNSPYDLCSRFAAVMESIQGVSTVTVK
Chain of USP25 (Q9UHP3 whole entry): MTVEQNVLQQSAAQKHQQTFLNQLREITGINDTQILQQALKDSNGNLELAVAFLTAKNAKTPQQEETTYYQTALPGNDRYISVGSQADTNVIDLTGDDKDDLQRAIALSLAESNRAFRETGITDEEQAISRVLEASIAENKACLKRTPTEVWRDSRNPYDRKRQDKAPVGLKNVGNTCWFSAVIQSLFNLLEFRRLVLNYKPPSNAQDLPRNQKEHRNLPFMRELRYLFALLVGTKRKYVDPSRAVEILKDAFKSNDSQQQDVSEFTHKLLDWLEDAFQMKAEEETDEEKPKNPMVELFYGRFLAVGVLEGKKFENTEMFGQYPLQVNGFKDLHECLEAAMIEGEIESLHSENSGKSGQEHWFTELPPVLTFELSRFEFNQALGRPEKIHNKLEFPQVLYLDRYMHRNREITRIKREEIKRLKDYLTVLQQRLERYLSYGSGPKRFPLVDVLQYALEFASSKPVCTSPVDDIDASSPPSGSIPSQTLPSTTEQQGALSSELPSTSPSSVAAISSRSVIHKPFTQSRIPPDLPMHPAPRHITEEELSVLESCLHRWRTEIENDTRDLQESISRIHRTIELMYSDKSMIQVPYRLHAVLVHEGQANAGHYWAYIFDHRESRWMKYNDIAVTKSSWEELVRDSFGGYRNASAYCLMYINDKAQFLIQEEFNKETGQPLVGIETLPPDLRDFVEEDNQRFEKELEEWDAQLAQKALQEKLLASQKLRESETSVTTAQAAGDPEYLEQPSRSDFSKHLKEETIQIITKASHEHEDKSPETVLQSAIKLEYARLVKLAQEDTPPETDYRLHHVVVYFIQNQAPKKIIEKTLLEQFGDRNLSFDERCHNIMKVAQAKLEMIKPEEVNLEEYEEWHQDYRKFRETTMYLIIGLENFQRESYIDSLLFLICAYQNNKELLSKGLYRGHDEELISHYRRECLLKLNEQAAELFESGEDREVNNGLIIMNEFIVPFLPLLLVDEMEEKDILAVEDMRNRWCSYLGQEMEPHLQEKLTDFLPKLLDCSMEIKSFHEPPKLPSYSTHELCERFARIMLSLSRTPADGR

Row | Compound | IC50 [1] | IC50 [2]
1 | Cc1cnc2c(N)c(C(=O)NC[C@@H](C)c3ccc(N4CC5CCC(C4)N5)c(F)c3)sc2n1 (single isomer, unassigned) [Compound I-12] | 200 to 2000 nM | 2000 to 10000 nM
2 | Cc1cnc2c(N)c(C(=O)NC[C@H](C)c3ccc(N4CC5CCC(C4)N5)c(F)c3)sc2n1 (single isomer, unassigned) [Compound I-13] | 200 to 2000 nM | 2000 to 10000 nM
3 | Cc1cnc2c(N)c(C(=O)NC[C@@H](C)c3cc(F)c(N4CC5CCC(C4)N5)cc3F)sc2n1 (single isomer, unassigned) [Compound I-14] | 2000 to 10000 nM | 
4 | Cc1cnc2c(N)c(C(=O)NC[C@H](C)c3cc(F)c(N4CC5CCC(C4)N5)cc3F)sc2n1 (single isomer, unassigned) [Compound I-15] | < 200 nM | 2000 to 10000 nM
5 | Cc1cnc2c(N)c(C(=O)NC[C@@H](C)c3ccc(N4CC5CCC(C4)N5)cc3F)sc2n1 (single isomer, unassigned) [Compound I-16] | 200 to 2000 nM | 200 to 2000 nM
6 | Cc1cnc2c(N)c(C(=O)NC[C@H](C)c3ccc(N4CC5CCC(C4)N5)cc3F)sc2n1 (single isomer, unassigned) [Compound I-17] | 200 to 2000 nM | 2000 to 10000 nM
7 | Cc1cnc2c(N)c(C(=O)NC[C@@H](C)c3ccc(N4CC5CCC(C4)N5)c(C#N)c3)sc2n1 (single isomer, unassigned) [Compound I-18] | 2000 to 10000 nM | 2000 to 10000 nM
8 | Cc1cnc2c(N)c(C(=O)NC[C@H](C)c3ccc(N4CC5CCC(C4)N5)c(C#N)c3)sc2n1 (single isomer, unassigned) [Compound I-19] | 2000 to 10000 nM | 2000 to 10000 nM
9 | Cc1cnc2c(N)c(C(=O)NC[C@@H](C)c3cc(F)c(N4CC5CNCC(C4)O5)cc3F)sc2n1 (single isomer, unassigned) [Compound I-21] | 200 to 2000 nM | 200 to 2000 nM
10 | Cc1cnc2c(N)c(C(=O)NC[C@H](C)c3cc(F)c(N4CC5CNCC(C4)O5)cc3F)sc2n1 (single isomer, unassigned) [Compound I-22] | 200 to 2000 nM | 200 to 2000 nM
11 | Cc1cnc2c(N)c(C(=O)NCCc3ccc(N4CCNCC4)cc3)sc2n1 [Compound I-1, 7-Amino-3-methyl-N-(4-(piperazin-1-yl)phenethyl)thieno[2,3-b]pyrazine-6-carboxamide] | 200 to 2000 nM | 
12 | Cc1cnc2c(N)c(C(=O)NCCc3ccc(N4CCNCC4)c(Cl)c3)sc2n1 [Compound I-2] | 200 to 2000 nM | 
13 | Cc1cnc2c(N)c(C(=O)NCCc3ccc(N4CC5CCC(C4)N5)c(Cl)c3)sc2n1 [Compound I-3, N-(4-(3,8-diazabicyclo[3.2.1]octan-3-yl)-3-chlorophenethyl)-7-amino-3-methylthieno[2,3-b]pyrazine-6-carboxamide] | < 200 nM | 
14 | Cc1cnc2c(N)c(C(=O)NCCc3cc(F)c(N4CCNCC4)cc3F)sc2n1 [Compound I-4] | 200 to 2000 nM | 2000 to 10000 nM
15 | Cc1cnc2c(N)c(C(=O)NCCc3ccc(N4CC5CCC(C4)N5)c(F)c3)sc2n1 [Compound I-6] | < 200 nM | < 200 nM
16 | Cc1cnc2c(N)c(C(=O)NCCc3cc(F)c(N4CC5CCC(C4)N5)cc3F)sc2n1 [Compound I-7, N-(4-(3,8-diazabicyclo[3.2.1]octan-3-yl)-2,5-difluorophenethyl)-7-amino-3-methylthieno[2,3-b]pyrazine-6-carboxamide] | < 200 nM | 200 to 2000 nM
17 | Cc1cnc2c(N)c(C(=O)NCCc3ccc(N4CC5CCC(C4)N5)c(C#N)c3)sc2n1 [Compound I-9] | 200 to 2000 nM | 200 to 2000 nM
18 | Cc1cnc2c(N)c(C(=O)NCCc3ccc(N4CC5CCC(C4)N5)cc3F)sc2n1 [Compound I-10] | < 200 nM | 200 to 2000 nM
19 | Cc1cnc2c(N)c(C(=O)NCCc3c(F)cc(N4CC5CCC(C4)N5)cc3F)sc2n1 [Compound I-11] | 200 to 2000 nM | 200 to 2000 nM
20 | Cc1cnc2c(N)c(C(=O)NCCc3c(F)cc(N4CC5CNCC(C4)O5)cc3F)sc2n1 [Compound I-20] | < 200 nM | < 200 nM
21 | CCc1cnc2c(N)c(C(=O)NCCc3ccc(N4CC5CCC(C4)N5)cc3)sc2n1 [Compound I-23] | 2000 to 10000 nM | 200 to 2000 nM
